Data on two molecules can be found in paper PMC11582565, “Allostery can convert binding free energies into concerted domain motions in enzymes” (Nature Communications, 2024).

Type in all cases: binding
Experiment [1] deals with T1, adenylate kinase (AK_2+, AK) (Escherichia coli, UniProt P69441).
T1 construct: gene adk; full-length AK (214 residues) with C-terminal extension GKK plus Strep-tag WSHPQFEK kept; pET22b, E. coli BL21(DE3); single enzyme trapped in ClyA-AS nanopore
Briefly: single-molecule nanopore (ClyA-AS) recording, Hill fit of LID-closed fraction. The note with it: minor component; type II blockades (12 ± 6% of blockades, alternative conformer); Hill coefficient 1.7; 400 mM KCl, 15 mM Tris, 2 mM MgCl2, pH 7.5, 22 °C, -90 mV.

The target of experiment [2] is T1, adenylate kinase (AK_2+, AK). The description is as above.
Experiment [3] shares this target. Briefly: single-molecule nanopore (ClyA-AS) recording, ligand-induced current levels M1-M4. The note with it: inhibitor; added cis or trans; 400 mM KCl, 15 mM Tris, 2 mM MgCl2, pH 7.5, 22 °C, -90 mV.

The structures appear in SMILES notation.

T1 sequence (P69441 whole entry): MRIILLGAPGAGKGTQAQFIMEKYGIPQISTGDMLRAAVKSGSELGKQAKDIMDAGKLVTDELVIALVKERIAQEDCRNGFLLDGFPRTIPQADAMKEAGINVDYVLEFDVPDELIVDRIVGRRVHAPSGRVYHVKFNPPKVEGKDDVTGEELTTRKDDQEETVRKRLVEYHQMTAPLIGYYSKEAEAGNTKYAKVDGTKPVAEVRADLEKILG

For `Nc1ncnc2c1ncn2[C@@H]1O[C@H](COP(=O)(O)OP(=O)(O)O)[C@@H](O)[C@H]1O` [ADP], the dissociation constant (KD) (as a rule, the free concentration of one partner at which half of the binding sites on the other are occupied at equilibrium, for simple one-to-one binding) in experiment [1] is 123.2 ± 18.1 µM. Binding in experiment [2] was characterised by a dissociation constant (Kd) of 45.4 ± 1.6 µM. In the case of `Nc1ncnc2c1ncn2[C@@H]1O[C@H](COP(=O)(O)OP(=O)(O)OP(=O)(O)OP(=O)(O)OP(=O)(O)OC[C@H]2O[C@@H](n3cnc4c(N)ncnc43)[C@H](O)[C@@H]2O)[C@@H](O)[C@H]1O` [Ap5A, P^1,P^5-Di-(adenosine-5’)-pentaphosphate], the “single-molecule nanopore (ClyA-AS) recording, ligand-induced current levels M1-M” value in experiment [3] is “The addition of Ap5A to either the cis or trans side of the nanopore induced”.
